Test results as given in PubChem BioAssay (NCI).
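Cells were grown in 96-well plates and exposed to each compound for 48 hours at five concentrations; endpoints were interpolated linearly between bracketing concentrations, or set to the highest concentration if not reached. Here, GI50 denotes the concentration required for 50% inhibition of growth. TGI: concentration producing complete growth inhibition.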

How the values were obtained:
Experiment in all cases: growth of human tumour cells (NCI), 48 h
[1] = test system: K-562 leukemia
[2] = test system: HOP-92 NSCLC
[3] = test system: EKVX NSCLC
[4] = test system: HCT-116 colon
[5] = test system: SF-268 CNS
[6] = test system: HCT-15 colon
[7] = test system: HT29 colon
[8] = test system: NCI/ADR-RES ovarian
[9] = test system: HCC-2998 colon
[10] = test system: NCI-H226 lung

CCC(=O)NC(Nc1cccc(F)c1)(C(F)(F)F)C(F)(F)F
TGI [1]: > 100 µM
TGI [2]: > 100 µM
TGI [3]: > 100 µM
TGI [4]: > 100 µM
TGI [5]: > 100 µM
TGI [6]: > 100 µM
TGI [7]: > 100 µM
TGI [8]: > 100 µM
TGI [9]: > 100 µM

c1ccc(N=c2nc(N3CCOCC3)ss2)cc1
TGI [10]: > 100 µM
TGI [1]: 43.6 µM
TGI [2]: 36.3 µM
TGI [3]: 36.4 µM
TGI [4]: 27.7 µM
TGI [5]: 31.1 µM
TGI [6]: 29 µM
TGI [7]: 35.4 µM
TGI [9]: 45.1 µM

Fc1ccc(-c2nn3c(-c4cc(C(F)(F)F)cc(C(F)(F)F)c4)nnc3s2)cc1
GI50 [10]: 1.49 µM
TGI [10]: > 50 µM
GI50 [1]: > 50 µM
TGI [1]: > 50 µM
GI50 [2]: 1.22 µM
TGI [2]: 3.93 µM
GI50 [3]: 1.75 µM
TGI [3]: > 50 µM
GI50 [4]: 1.7 µM
TGI [4]: > 50 µM
GI50 [5]: 3.03 µM
TGI [5]: > 50 µM
GI50 [6]: > 50 µM
TGI [6]: > 50 µM
GI50 [7]: > 50 µM
TGI [7]: > 50 µM
GI50 [8]: 2.95 µM
TGI [8]: > 50 µM
GI50 [9]: > 50 µM
TGI [9]: > 50 µM

CC(=O)O[C@H]1C=CC(=O)C(C)CC1C (some centres undefined)
TGI [10]: > 100 µM
TGI [1]: > 100 µM
TGI [2]: > 100 µM
TGI [3]: > 100 µM
TGI [4]: > 100 µM
TGI [5]: > 100 µM
TGI [7]: > 100 µM
TGI [9]: > 100 µM

CCCC(N)C(=O)c1ccccc1 (centres undefined)
TGI [10]: > 100 µM
TGI [1]: > 100 µM
TGI [2]: > 100 µM
TGI [3]: > 100 µM
TGI [4]: > 100 µM
TGI [5]: > 100 µM
TGI [6]: > 100 µM
TGI [7]: > 100 µM
TGI [9]: > 100 µM

COC1=CC(=O)c2c(cc(COP(=O)(OCC3OC(n4cc(F)c(=O)[nH]c4=O)CC3O)N(C)CCCCCl)n2C)C1=O (centres undefined)
TGI [10]: 47.1 µM
TGI [1]: > 95.9 µM
TGI [2]: 12.3 µM
TGI [3]: 26 µM
TGI [4]: 28.5 µM
TGI [5]: 16.1 µM
TGI [6]: > 86.4 µM
TGI [7]: > 40.7 µM
TGI [8]: > 40.6 µM

Cc1cc(C)nc(SCC(=O)OC2CC(C)CCC2C(C)C)n1 (centres undefined)
TGI [1]: 52.2 µM
TGI [2]: 67.1 µM
TGI [3]: 39.3 µM
TGI [4]: 47 µM
TGI [5]: > 100 µM
TGI [6]: 43.8 µM
TGI [7]: 39.9 µM
TGI [8]: 50.7 µM

CN1C[C@H]2[C@@H](C1=O)[C@H](c1ccccc1)ON2C
TGI [10]: > 100 µM
TGI [1]: > 100 µM
TGI [2]: > 100 µM
TGI [4]: > 100 µM
TGI [6]: > 100 µM
TGI [7]: > 100 µM
TGI [8]: > 100 µM
TGI [9]: > 100 µM

O=C(Nc1c(C(=O)NC2CCCCC2)[nH]c(=O)[nH]c1=O)c1ccc(Cl)cc1
TGI [10]: > 100 µM
TGI [1]: > 100 µM
TGI [2]: > 100 µM
TGI [3]: > 100 µM
TGI [4]: > 100 µM
TGI [5]: > 100 µM
TGI [6]: > 100 µM
TGI [7]: > 100 µM

CC(=O)OCC1=C(C(=O)O)C(c2ccc3c(c2)OCO3)c2cc3c(cc2O1)OCO3 (centres undefined)
TGI [1]: > 100 µM
TGI [2]: > 100 µM
TGI [3]: > 100 µM
TGI [4]: > 100 µM
TGI [6]: > 100 µM
TGI [7]: > 100 µM

Cc1cc(C)c2c(c1)C1=NCCN1C2(O)c1ccc(Cl)cc1 (centres undefined)
TGI [1]: 65 µM
TGI [2]: 28.6 µM
TGI [3]: 33.3 µM
TGI [4]: 26 µM
TGI [5]: 31 µM
TGI [6]: 32.4 µM
TGI [7]: 31.5 µM
TGI [8]: 30.2 µM

NC1(C(=O)O)CCc2ccc(N(CCCl)CCCl)cc2C1 (centres undefined)
TGI [10]: > 100 µM
TGI [1]: > 100 µM
TGI [2]: > 100 µM
TGI [3]: > 100 µM
TGI [4]: 1.69 µM
TGI [5]: 87 µM
TGI [6]: > 100 µM
TGI [7]: > 100 µM
TGI [8]: > 100 µM
TGI [9]: > 100 µM

N=C(N)SCc1cc(Cl)cc(Cl)c1O
TGI [10]: 43.1 µM
TGI [1]: 41.5 µM
TGI [2]: 35.1 µM
TGI [3]: 42.8 µM
TGI [4]: 29.8 µM
TGI [5]: 58.3 µM
TGI [6]: 46.8 µM
TGI [7]: 32.1 µM
TGI [8]: 89.3 µM
TGI [9]: 31.9 µM

CCCCCCCNC(P(=O)(O)O)P(=O)(O)O
TGI [10]: > 100 µM
TGI [1]: > 100 µM
TGI [2]: > 100 µM
TGI [3]: > 100 µM
TGI [4]: > 100 µM
TGI [5]: > 100 µM
TGI [6]: > 100 µM
TGI [7]: > 100 µM
TGI [8]: > 100 µM
TGI [9]: > 100 µM

Cc1ccc(C2N=C(N)NC3=C2CCOc2c3ccc3ccccc23)cc1 (centres undefined)
GI50 [10]: 28.1 µM
TGI [10]: > 88.4 µM
TGI [1]: > 44.1 µM
TGI [2]: 57.5 µM
TGI [3]: > 55.1 µM
TGI [4]: 12.3 µM
TGI [5]: > 75.6 µM
TGI [6]: > 60.1 µM
TGI [7]: > 66.7 µM
TGI [8]: > 60.5 µM
TGI [9]: 76.4 µM

O=C(Nc1ccc(Sc2ccc(N=Nc3c(O)c(S(=O)(=O)O)cc4cc(S(=O)(=O)O)ccc34)cc2)cc1)c1ccc(N=Nc2c(O)ccc3c(S(=O)(=O)O)cc(S(=O)(=O)O)cc23)cc1
TGI [10]: > 100 µM
TGI [1]: 87.6 µM
TGI [2]: > 100 µM
TGI [3]: > 100 µM
TGI [4]: > 100 µM
TGI [5]: > 100 µM
TGI [6]: > 100 µM
TGI [7]: > 100 µM
TGI [9]: > 100 µM

N#CC(Nc1cccc(C(F)(F)F)c1)c1ccccc1C(F)(F)F (centres undefined)
TGI [10]: 30.4 µM
TGI [1]: 42.4 µM
TGI [3]: 28.7 µM
TGI [4]: 18.7 µM
TGI [5]: 32.2 µM
TGI [6]: 17.8 µM
TGI [7]: 28 µM
TGI [9]: 18.6 µM

Clc1ccc(CNc2nc(Cl)c3[nH]cnc3n2)cc1Cl
TGI [10]: 78.9 µM
TGI [1]: > 100 µM
TGI [3]: > 100 µM
TGI [4]: 60.7 µM
TGI [5]: 81.8 µM
TGI [6]: > 100 µM
TGI [7]: 83.4 µM
TGI [8]: 69.6 µM
TGI [9]: 53.2 µM

O=C(O)C1CCC(=O)N1S(=O)(=O)c1ccccc1 (centres undefined)
TGI [10]: > 100 µM
TGI [1]: > 100 µM
TGI [2]: > 100 µM
TGI [3]: > 100 µM
TGI [4]: > 100 µM
TGI [5]: > 100 µM
TGI [6]: > 100 µM
TGI [7]: > 100 µM
TGI [8]: > 100 µM
TGI [9]: > 100 µM
